The text below walks through data of paper PMC6272417, “Quercitrin, an Inhibitor of Sortase A, Interferes with the Adhesion of Staphylococcal aureus” (Molecules, 2015).

What all share (settings): read-out: Binding Constants KA (1 × 10^5) L.mol^-1 (converted)
Test [1] deals with T1, Sortase A (SrtA) (Staphylococcus aureus, UniProt Q2FV99, G167A).
T1 construct: SrtAΔN59 (residues 60-206)
The test can be described thus: fluorescence-quenching binding constant KA.

For test [2], the target named is T2, Sortase A (SrtA) (Staphylococcus aureus, UniProt Q2FV99, V193A).
T2 construct: SrtAΔN59 (residues 60-206)
As to the kind of experiment: fluorescence-quenching binding constant KA.

The target of test [3] is T3, Sortase A (SrtA) (Staphylococcus aureus, UniProt Q2FV99).
T3 construct: SrtAΔN59 (residues 60-206)
The test can be described thus: fluorescence-quenching binding constant KA; also FRET inhibition of purified SrtAΔN59 (IC50 […]).

`C[C@@H]1O[C@@H](Oc2c(-c3ccc(O)c(O)c3)oc3cc(O)cc(O)c3c2=O)[C@H](O)[C@H](O)[C@H]1O` [QEN, Quercitrin]: the Kd was 2.7 µM in test [1], 2.38 µM in test [2] and 1.45 µM in test [3].
